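These data come from cells grown in 96-well plates and exposed to compound for 48 hours at five concentrations. GI50 is the concentration that inhibits growth by half. At the TGI there is no net growth.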
Experiments:
Test in all cases: NCI tumour cell line growth inhibition, 48 h
KM20L2 colon = test system: KM20L2 colon
M19-MEL melanoma = test system: M19-MEL melanoma
HOP-18 NSCLC = test system: HOP-18 NSCLC
HS 578T breast = test system: HS 578T breast
P388 leukemia = test system: P388 leukemia
P388/ADR leukemia = test system: P388/ADR leukemia
SN12K1 renal = test system: SN12K1 renal

| SMILES | TGI (KM20L2 colon) | TGI (HOP-18 NSCLC) | TGI (HS 578T breast) | other results |
| --- | --- | --- | --- | --- |
| CCC(C)C(=O)c1c(O)c(C/C=C(\C)CCC=C(C)C)c(O)c2c(C(O)CC)cc(=O)oc12 (centres undefined) | 2.68 µM |  |  | TGI (M19-MEL melanoma): 6.51 µM |
| CCOC(=O)/C=C(\C)c1ccc(OC)cc1 | > 100 µM | > 100 µM |  |  |
| COc1ccc(NC(=O)/C(=C/c2ccc(N(CCC#N)CCC#N)cc2)NC(=O)c2cc([N+](=O)[O-])ccc2Cl)cc1 | > 100 µM | > 100 µM |  | TGI (M19-MEL melanoma): > 100 µM |
| CC(C)C[P+](c1ccccc1)(c1ccccc1)c1ccccc1 |  |  | > 100 µM |  |
| COc1ccc(NC(=O)/C(CC2=Nc3ccc([N+](=O)[O-])cc3NC2O)=N\NC(=O)C[N+](C)(C)C)c(OC)c1 (centres undefined) |  |  | > 100 µM |  |
| CC1(C)N=C(N)N=C(N)N1c1cccc(OCCOc2ccc([N+](=O)[O-])cc2)c1 |  |  | > 100 µM |  |
| N#Cc1c(NC(=S)NC(=O)c2ccccc2)nc2c(c1-c1ccccc1)CCCC2 |  |  | 35 µM |  |
| COc1cc(C2c3cc4c(cc3[C@@H](Nc3cccc(C(C)=O)c3)C3COC(=O)[C@H]23)OCO4)cc(OC)c1O (some centres undefined) | > 23.3 µM | 54.3 µM |  | TGI (M19-MEL melanoma): > 57.7 µM; TGI (P388 leukemia): 0.254 µM; TGI (P388/ADR leukemia): 2.53 µM; TGI (SN12K1 renal): 4.61 µM |
| ClCc1c(Cl)c(Cl)c(Cl)c(CCl)c1Cl |  |  | 5.61 µM | GI50 (HS 578T breast): 2.15 µM |
| CCO/N=[N+](\[O-])N(CC)CC | > 100 µM |  |  | TGI (M19-MEL melanoma): > 100 µM |
| COc1ccc(-c2cc(N3CCN(c4ccccc4)CC3)c(C#N)c(=O)o2)cc1 | > 100 µM | 62.2 µM |  |  |
| Cc1nc2ccccc2c(=O)[nH]1 | > 100 µM | > 100 µM |  | TGI (M19-MEL melanoma): > 100 µM |
| C#CC[C@@H]1C[C@]2(C)[C@H]3CC=C4[C@H]5CC(C)(C)CC[C@]5(C(=O)NCCCCN)CC[C@@]4(C)[C@]3(C)CC[C@H]2C(C)(C)[C@H]1OC(C)=O |  |  | 3.71 µM | GI50 (HS 578T breast): 1.73 µM |
| Cn1c(-c2ccc(/C=N\N3CCN(/N=C/c4ccc(-c5c[n+]6ccccc6n5C)cc4)CC3)cc2)c[n+]2ccccc12 |  |  | 92.8 µM |  |
| CC[n+]1c(/C=C/c2ccc(N(CCCl)CCCl)cc2)ccc2cc(NC(=O)/C=C/c3ccccc3)ccc21 |  | 13 µM | 1.25 µM |  |
| COc1ccc(CC(C)N)cc1 (centres undefined) | > 100 µM | > 100 µM |  |  |
| Brc1ccccc1-c1ncc(-c2ccccc2)o1 |  |  | 41 µM |  |
